The values below are quoted from earlier work in patent publication US20030087789A1, “Emulsion containing a plant extract, method for producing said emulsion and for obtaining a plant extract” (priority 2000, published 2003).

Molecules are shown by their SMILES.

One data set has as its system Escherichia coli. The note with it: intestinal Escherichia coli.

Regarding `C=C(C)[C@@H]1CC[C@]2(CO)CC[C@]3(C)[C@H](CC[C@@H]4[C@@]5(C)CC[C@H](O)C(C)(C)[C@@H]5CC[C@]43C)[C@@H]12` [betulin], the “bacteriostatic and bactericidal effect” value was “bacteriostatic and bactericidal effect” in the data set with Escherichia coli; “bacteriostatic and bactericidal effect” with Salmonella typhi; “bacteriostatic and bactericidal effect” with Shigella flexneri; “bacteriostatic and bactericidal effect” in the data set on Staphylococcus aureus. The “solubility in cold petroleum ether” value (cold petroleum ether (C5-C8 CH)) is reported as “practically insoluble”. In addition, the “solubility in dichloromethane, chloroform and cold organic solvents” value (dichloromethane, chloroform and cold organic solvents) is “only slightly soluble”. The “solubility in pyridine and tetrahydrofuran” value (pyridine and tetrahydrofuran) is “soluble”. In addition, for the setting “water”, the solubility in water entry is “practically insoluble”. For the setting “water or water-alcohol mixtures (up to 60% alcohol)”, the “solubility in water or water-alcohol mixtures” value is “insoluble”.
